# Test results taken from patent US11236052B2, “Aminobenzimidazole derivatives, treatments, and methods of inhibiting histone deacetylase” (TRANSLATIONAL DRUG DEVELOPMENT, LLC, priority 2017, dated 2022).
# Like-named read-outs stand apart in the source and are kept apart here.
# How the values were obtained:
# MM1.S cells = assay: CellTiter-Glo cell viability assay, MM1.S cells; type: cell-based, human; details: for IC50: Homo sapiens
# Protocol: Cell viability in the presence of varying concentrations of the above listed compounds at different time points was used to assess cytotoxicity and the effect of the compounds on cell proliferation.
# (§1) Cell Viability Assay—Cell viability was measured by the CellTiter-GlO® cell viability assay from Promega (Madison, Wis.). The CellTiter-GlO® Luminescent Cell Viability Assay is a homogeneous method to determine the number of viable cells in culture based on quantitation of the ATP present, which signals the presence of metabolically active cells. Following treatment, CellTiter-GlO® is added to treatment wells and incubated at 37° C. luminescence values were measured at using a Molecular Devices Spectramax microplate reader
# (§2) Single Agent Studies—Cells were grown to 70% confluency, trypsinized, counted, and seeded in 96 well flat-bottom plates at a final concentration of 2.5×10^3-5×10^3 cells/well (Day 0). Cells were allowed to incubate in growth media for 24 hours. Treatment with the test agents or standard agents began on Day 1 and continued for 72 hours. At the 72 hour timepoint, treatment containing media was removed. Viable cell numbers are quantified by the CellTiter-GlO® cell viability assay as described above. Results from these studies were used to calculate an IC50 value (concentration of drug that inhibits cell growth by 50 percent of control) for each compound.
# Data Collection—For single agent and combination studies, data from each experiment was collected and expressed as % Cell Growth using the following calculation: Cell Growth=(ftest/fvehicle)×100
# Where ftest is the fluorescence of the tested sample, and fvehicle is the fluorescence of the vehicle in which the drug is dissolved. Dose response graphs and IC50 values were generated using Prism 6 software (GraphPad) using the following equation: […]
# Where X is the logarithm of concentration and Y is the response. Y starts at the Bottom and goes to Top with a sigmoid shape.
# as §1, with “CellTiter-Glo®” for “CellTiter-GlO®”, “assay” for “assay from”, “reader.” for “reader”
# as §2, with “agents” for “agents or standard agents”, “72-hour time point, treatment-containing” for “72 hour timepoint, treatment containing”, “CellTiter-Glo®” for “CellTiter-GlO®”, “above. Experiments were run with triplicate concentrations to determine growth inhibitory activity.” for “above.”
# (§3) Data Collection—For single agent and combination studies, data from each experiment was collected and expressed as % Cell Growth using the following calculation: % Cell Growth=(ftest/fvehicle)×100
# (§4) Where ftest is the luminescence of the tested sample, and fvehicle is the luminescence of the vehicle in which the drug is dissolved. Dose response graphs and IC50 values were generated using Prism 6 software (GraphPad).
# U251 = assay: CellTiter-Glo cell viability assay, U251; type: cell-based; details: GBM
# Protocol: as §1, with “CellTiter-Glo®” for “CellTiter-GlO®”, “assay” for “assay from”, “reader.” for “reader”
# as §2, with “agents” for “agents or standard agents”, “72-hour time point, treatment-containing” for “72 hour timepoint, treatment containing”, “CellTiter-Glo®” for “CellTiter-GlO®”, “above. Experiments were run with triplicate concentrations to determine growth inhibitory activity.” for “above.”
# as §3, §4
# MDA-157 = assay: CellTiter-Glo cell viability assay, MDA-157; type: cell-based; details: Breast
# Protocol: as §1, with “CellTiter-Glo®” for “CellTiter-GlO®”, “assay” for “assay from”, “reader.” for “reader”
# as §2, with “agents” for “agents or standard agents”, “72-hour time point, treatment-containing” for “72 hour timepoint, treatment containing”, “CellTiter-Glo®” for “CellTiter-GlO®”, “above. Experiments were run with triplicate concentrations to determine growth inhibitory activity.” for “above.”
# as §3, §4
# MDA468 = assay: CellTiter-Glo cell viability assay, MDA468; type: cell-based; details: Breast
# Protocol: as §1, with “CellTiter-Glo®” for “CellTiter-GlO®”, “assay” for “assay from”, “reader.” for “reader”
# as §2, with “agents” for “agents or standard agents”, “72-hour time point, treatment-containing” for “72 hour timepoint, treatment containing”, “CellTiter-Glo®” for “CellTiter-GlO®”, “above. Experiments were run with triplicate concentrations to determine growth inhibitory activity.” for “above.”
# as §3, §4
# GIST48 = assay: CellTiter-Glo cell viability assay, GIST48; type: cell-based; details: GIST
# Protocol: as §1, with “CellTiter-Glo®” for “CellTiter-GlO®”, “assay” for “assay from”, “reader.” for “reader”
# as §2, with “agents” for “agents or standard agents”, “72-hour time point, treatment-containing” for “72 hour timepoint, treatment containing”, “CellTiter-Glo®” for “CellTiter-GlO®”, “above. Experiments were run with triplicate concentrations to determine growth inhibitory activity.” for “above.”
# as §3, §4
# GIST882 = assay: CellTiter-Glo cell viability assay, GIST882; type: cell-based; details: GIST
# Protocol: as §1, with “CellTiter-Glo®” for “CellTiter-GlO®”, “assay” for “assay from”, “reader.” for “reader”
# as §2, with “agents” for “agents or standard agents”, “72-hour time point, treatment-containing” for “72 hour timepoint, treatment containing”, “CellTiter-Glo®” for “CellTiter-GlO®”, “above. Experiments were run with triplicate concentrations to determine growth inhibitory activity.” for “above.”
# as §3, §4
# AN3CA = assay: CellTiter-Glo cell viability assay, AN3CA; type: cell-based; details: Uterine
# Protocol: as §1, with “CellTiter-Glo®” for “CellTiter-GlO®”, “assay” for “assay from”, “reader.” for “reader”
# as §2, with “agents” for “agents or standard agents”, “72-hour time point, treatment-containing” for “72 hour timepoint, treatment containing”, “CellTiter-Glo®” for “CellTiter-GlO®”, “above. Experiments were run with triplicate concentrations to determine growth inhibitory activity.” for “above.”
# as §3, §4
# SKUT-1 = assay: CellTiter-Glo cell viability assay, SKUT-1; type: cell-based; details: Uterine
# Protocol: as §1, with “CellTiter-Glo®” for “CellTiter-GlO®”, “assay” for “assay from”, “reader.” for “reader”
# as §2, with “agents” for “agents or standard agents”, “72-hour time point, treatment-containing” for “72 hour timepoint, treatment containing”, “CellTiter-Glo®” for “CellTiter-GlO®”, “above. Experiments were run with triplicate concentrations to determine growth inhibitory activity.” for “above.”
# as §3, §4
# Ishikawa = assay: CellTiter-Glo cell viability assay, Ishikawa; type: cell-based; details: Uterine
# Protocol: as §1, with “CellTiter-Glo®” for “CellTiter-GlO®”, “assay” for “assay from”, “reader.” for “reader”
# as §2, with “agents” for “agents or standard agents”, “72-hour time point, treatment-containing” for “72 hour timepoint, treatment containing”, “CellTiter-Glo®” for “CellTiter-GlO®”, “above. Experiments were run with triplicate concentrations to determine growth inhibitory activity.” for “above.”
# as §3, §4
# SNG-M = assay: CellTiter-Glo cell viability assay, SNG-M; type: cell-based; details: Uterine
# Protocol: as §1, with “CellTiter-Glo®” for “CellTiter-GlO®”, “assay” for “assay from”, “reader.” for “reader”
# as §2, with “agents” for “agents or standard agents”, “72-hour time point, treatment-containing” for “72 hour timepoint, treatment containing”, “CellTiter-Glo®” for “CellTiter-GlO®”, “above. Experiments were run with triplicate concentrations to determine growth inhibitory activity.” for “above.”
# as §3, §4
compound,measurement,setting,value
"O=C(NO)c1ccc(Nc2nc3ccccc3n2CC2CCCCC2)cc1 [ID #1, 4-((1-(cyclohexylmethyl)-1H-benzo[d]imidazol-2-yl)amino)-N-hydroxybenzamide]",IC50,"MM1.S cells; MM1.S cells, 72 hours treatment, read-out: IC50 in MM1.S",500 nM
same,IC50,"MM1.S cells; Myeloma, MM1.S, 72 hours (Table 3), read-out: IC50",500 nM
same,Improvement ID #1 over ID #3 Percent,"MM1.S cells; Myeloma, MM1.S",76.08%
same,Improvement ID #1 over ID #3 fold,"MM1.S cells; Myeloma, MM1.S",4.18 fold
same,Improvement ID #1 over ID #3 Percent,U251; U251,61.18%
same,Improvement ID #1 over ID #3 fold,U251; U251,2.58 fold
same,IC50,"U251; Homo sapiens, U-251, U251, 72 hours",1580 nM
same,Improvement ID #1 over ID #3 Percent,MDA-157; MDA-157,63.77%
same,Improvement ID #1 over ID #3 fold,MDA-157; MDA-157,2.76 fold
same,IC50,"MDA-157; MDA-157, 72 hours",2750 nM
same,Improvement ID #1 over ID #3 Percent,MDA468; MDA468,58.63%
same,Improvement ID #1 over ID #3 fold,MDA468; MDA468,2.42 fold
same,IC50,"MDA468; MDA468, 72 hours",3.86 µM
same,Improvement ID #1 over ID #3 Percent,GIST48; GIST48,68.87%
same,Improvement ID #1 over ID #3 fold,GIST48; GIST48,3.21 fold
same,IC50,"GIST48; Homo sapiens, GIST48, 72 hours",1320 nM
same,Improvement ID #1 over ID #3 Percent,GIST882; GIST882,67.66%
same,Improvement ID #1 over ID #3 fold,GIST882; GIST882,3.09 fold
same,IC50,"GIST882; Homo sapiens, GIST882, 72 hours",5.75 µM
same,IC50,"AN3CA; Homo sapiens, AN3-CA, 72 hours",1600 nM
same,Improvement ID #1 over ID #3 Percent,AN3CA,64.99%
same,Improvement ID #1 over ID #3 fold,AN3CA,2.86 fold
same,IC50,"SKUT-1; Homo sapiens, SK-UT-1, SKUT-1, 72 hours",3.8 µM
same,Improvement ID #1 over ID #3 Percent,SKUT-1; SKUT-1,60.21%
same,Improvement ID #1 over ID #3 fold,SKUT-1; SKUT-1,2.51 fold
same,IC50,"Ishikawa; Homo sapiens, 72 hours",1700 nM
same,Improvement ID #1 over ID #3 Percent,Ishikawa,61.10%
same,Improvement ID #1 over ID #3 fold,Ishikawa,2.57 fold
same,Improvement ID #1 over ID #3 Percent,SNG-M,78.93%
same,Improvement ID #1 over ID #3 fold,SNG-M,4.75 fold
same,IC50,SNG-M; 72 hours,1700 nM
